Measured values as given in US10363229B2, “Methods and compositions for the treatment of cancer” (priority 2009, dated 2019).

Legend:
[1] = test system: SKP2 and p27 in 66 and M3 cells; assay: Immunofluorescence of SKP2 and p27 in cancer cells (Example 2); assay type: cell-based, mouse; details: 2% methyl sulfone, four weeks
Source text: SKP2 is a ubiquitin ligase that is active in cell nuclei and is expressed in many types of malignant cells. SKP2 promotes cell cycling and cell proliferation and promotes the degradation of the tumor suppressor protein p27. p27 is a tumor suppressor that is active when located in cell nuclei and in a non-phosphorylated form. p27 promotes cell cycle arrest and senescence.
In normal differentiated cells, p27 (non-phosphorylated active form) is located in the nucleus. […] This was confirmed in the experiments described below. The nuclei were stained with DAPI (blue) and corresponding p27 (red) or SKP2 (red), and then merged the p27/DAPI and SKP2/DAPI photos.
Cells were plated at 1×10^5 cells/ml on 12 mm round coverslips in 35 mm tissue culture plates (final volume of media was 1.5 ml/35 mm plate). At 24 hours after plating, media was replaced with fresh media containing 2% methyl sulfone and cells were incubated in media/2% methyl sulfone for four weeks. Media/2% methyl sulfone was changed every Monday, Wednesday, and Friday Immunofluorescence was performed at four weeks after plating to look for the presence of the following proteins: SKP2 and p27 (Santa Cruz Biotechnology). […]

[2] = test system: M3 Cloudman melanoma cells; assay: Live cell video microscopy of melanoma cells (morphology, contact inhibition); assay type: cell-based, mouse
Experimental: Cloudman S-91 mouse melanoma cells (sub-clone M-3, CCL 53.1; American Type Culture Collection, Rockville, Md.) were grown in RMPI medium supplemented with 10% fetal bovine serum (Invitrogen, Inc) and 5% penicillin-streptomycin (Invitrogen, Inc). Mouse breast cancer cells (66Cl-1; American Type Culture Collection, Rockville, Md.) that are estrogen-receptor negative were grown in DMEM medium supplemented with 10% fetal bovine serum (Invitrogen, Inc) and 5% penicillin/streptomycin (Invitrogen, Inc). Human T-cell leukemic lymphocytes (CEM; American Type Culture Collection, Rockville, Md.) were grown in MEM medium supplemented with 7% fetal calf serum. Cultures were passaged twice a week.
Cells were plated on 35 mm tissue culture dishes at concentration of 10^5 cells/plate, unless stated otherwise, and incubated at 37° C., 5% CO2. After 24 hours, methyl sulfone (0-10% in medium) was added to appropriate plates and immediately videotaped with a Nikon TE300 inverted microscope equipped with a 10×0.25 NA Plan Achromat objective lens. Control cells (no drug) were videotaped as described above. Time series (10 min) of phase contrast images were acquired at a video rate of 1 frame/5 s with a Watec-902B CCD video camera (Watec Corp., Japan) via the stream acquisition option of Metamorph image acquisition and analysis software (Universal Imaging Corp., Downington, Pa.). During recordings, cells were kept at 37° C. with 10 mM Hepes, pH 7.4. Time series of cells +/−2% methyl sulfone were obtained every 24-48 hours for up to 6 weeks.
M3 Cloudman melanoma cells were plated into culture dishes containing RPMI medium. After 24 hour media was changed to control medium (no drug) or to media containing different concentrations of methyl sulfone (1-10% methyl sulfone in RPMI medium). Cells were examined by live cell video microscopy immediately after adding drug and every 24 hours up to 144 hours.
The possibility that the data generated from treating cells with methyl sulfone was a nonspecific effect due to changes in extracellular osmolarity was considered. To test this possibility an equimolar concentration of urea was substituted for 2% methyl sulfone; urea has a chemical structure and dipolar moment that is similar to methyl sulfone. […] We next replaced 2% methyl sulfone with an equimolar concentration of dimethyl sulfoxide (DMSO).

methyl sulfone was tested, and the “SKP2 level and location” value [1] was “low levels of SKP2 in the cytoplasm”, the “p27 expression and location” value [1] was “high expression of p27 in the nucleus” and the contact inhibition ([2]; 2% methyl sulfone, by 24 hours) was “contact inhibited”. For the same substance, the “cell morphology after re-attachment” value ([2]; 2% methyl sulfone, over the next few hours) was “flattened morphology” and the “morphology immediately after adding drug” value ([2]; all concentrations (1-10% in RPMI medium)) was “cells became round with some cells detaching from culture plates”.
